Assay results taken from ChEMBL document CHEMBL3864167, “Structure-Activity Relationship, Drug Metabolism and Pharmacokinetics Properties Optimization, and in Vivo Studies of New Brain Penetrant Triple T-Type Calcium Channel Blockers” (J Med Chem, 2016).

Key:
[1] = molecular target: Voltage-dependent T-type calcium channel subunit alpha-1G (Homo sapiens, UniProt O43497); assay: Channel blocking activity at recombinant human CaV 3.1 channel expressed in HEK293 cells assessed as inhibition of Ca2+ flux preincubated for 3 mins followed by CaCl2 addition by fluo-4 dye-based FLIPR assay; assay type: cell-based
Chain of Voltage-dependent T-type calcium channel subunit alpha-1G (O43497 whole entry): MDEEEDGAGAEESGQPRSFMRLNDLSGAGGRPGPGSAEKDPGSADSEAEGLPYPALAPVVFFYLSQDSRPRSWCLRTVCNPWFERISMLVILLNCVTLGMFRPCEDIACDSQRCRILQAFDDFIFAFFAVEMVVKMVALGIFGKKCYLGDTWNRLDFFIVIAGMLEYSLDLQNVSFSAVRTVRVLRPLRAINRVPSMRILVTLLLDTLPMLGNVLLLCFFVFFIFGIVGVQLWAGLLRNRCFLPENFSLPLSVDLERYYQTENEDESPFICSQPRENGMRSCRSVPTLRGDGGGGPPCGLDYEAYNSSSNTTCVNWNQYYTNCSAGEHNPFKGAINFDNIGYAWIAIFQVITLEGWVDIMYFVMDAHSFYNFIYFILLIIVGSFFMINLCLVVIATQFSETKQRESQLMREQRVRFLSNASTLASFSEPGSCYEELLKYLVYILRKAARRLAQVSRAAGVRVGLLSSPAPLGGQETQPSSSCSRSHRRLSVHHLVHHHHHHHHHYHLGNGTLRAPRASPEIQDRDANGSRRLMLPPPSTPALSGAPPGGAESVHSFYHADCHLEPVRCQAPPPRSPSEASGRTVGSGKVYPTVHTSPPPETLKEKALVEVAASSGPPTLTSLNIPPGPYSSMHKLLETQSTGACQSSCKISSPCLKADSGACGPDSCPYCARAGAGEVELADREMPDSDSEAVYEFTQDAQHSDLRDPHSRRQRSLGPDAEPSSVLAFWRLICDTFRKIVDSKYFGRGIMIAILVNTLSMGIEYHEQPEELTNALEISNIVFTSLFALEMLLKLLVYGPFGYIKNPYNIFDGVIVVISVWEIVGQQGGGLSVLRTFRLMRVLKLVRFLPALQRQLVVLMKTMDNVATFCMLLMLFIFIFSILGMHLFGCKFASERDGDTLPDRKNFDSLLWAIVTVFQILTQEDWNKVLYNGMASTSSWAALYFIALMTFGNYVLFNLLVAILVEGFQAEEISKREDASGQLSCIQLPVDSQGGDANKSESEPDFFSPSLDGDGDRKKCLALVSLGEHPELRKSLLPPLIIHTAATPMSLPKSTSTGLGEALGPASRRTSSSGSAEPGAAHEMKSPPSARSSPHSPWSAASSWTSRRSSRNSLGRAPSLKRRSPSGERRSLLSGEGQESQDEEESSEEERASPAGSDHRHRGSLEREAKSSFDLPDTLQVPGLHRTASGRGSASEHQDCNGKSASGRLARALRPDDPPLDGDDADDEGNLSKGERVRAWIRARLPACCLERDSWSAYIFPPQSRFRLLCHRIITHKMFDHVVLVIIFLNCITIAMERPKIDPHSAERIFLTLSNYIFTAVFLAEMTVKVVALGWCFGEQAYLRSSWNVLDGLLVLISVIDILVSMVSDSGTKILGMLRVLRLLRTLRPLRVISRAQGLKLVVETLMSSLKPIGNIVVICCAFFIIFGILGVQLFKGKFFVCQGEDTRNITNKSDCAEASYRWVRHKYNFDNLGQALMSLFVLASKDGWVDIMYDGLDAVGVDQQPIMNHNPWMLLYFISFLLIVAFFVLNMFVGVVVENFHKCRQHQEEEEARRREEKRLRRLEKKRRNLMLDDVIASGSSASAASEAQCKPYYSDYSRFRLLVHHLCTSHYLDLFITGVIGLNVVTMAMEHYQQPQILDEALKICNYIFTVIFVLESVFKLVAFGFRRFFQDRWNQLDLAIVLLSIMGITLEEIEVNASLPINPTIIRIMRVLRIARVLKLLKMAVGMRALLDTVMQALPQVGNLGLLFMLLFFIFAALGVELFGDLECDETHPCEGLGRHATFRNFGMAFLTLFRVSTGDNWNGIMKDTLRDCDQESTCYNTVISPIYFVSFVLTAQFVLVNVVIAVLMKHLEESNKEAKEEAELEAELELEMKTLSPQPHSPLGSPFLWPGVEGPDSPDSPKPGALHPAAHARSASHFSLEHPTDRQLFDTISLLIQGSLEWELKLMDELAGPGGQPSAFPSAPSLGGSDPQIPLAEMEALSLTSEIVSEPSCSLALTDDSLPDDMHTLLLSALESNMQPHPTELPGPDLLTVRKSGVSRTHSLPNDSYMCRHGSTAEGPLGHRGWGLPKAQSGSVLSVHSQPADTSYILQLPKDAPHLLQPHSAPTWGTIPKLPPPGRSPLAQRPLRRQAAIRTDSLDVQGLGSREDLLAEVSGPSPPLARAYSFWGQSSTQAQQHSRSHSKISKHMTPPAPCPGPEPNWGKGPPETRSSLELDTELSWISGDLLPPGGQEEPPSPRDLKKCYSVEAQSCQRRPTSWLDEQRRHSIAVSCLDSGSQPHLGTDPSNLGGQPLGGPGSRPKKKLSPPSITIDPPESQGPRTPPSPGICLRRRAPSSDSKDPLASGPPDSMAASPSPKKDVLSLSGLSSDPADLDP

[2] = molecular target: Voltage-dependent T-type calcium channel subunit alpha-1H (Homo sapiens, UniProt O95180); assay: Channel blocking activity at recombinant human CaV 3.2 channel expressed in HEK293 cells assessed as inhibition of Ca2+ flux preincubated for 3 mins followed by CaCl2 addition by fluo-4 dye-based FLIPR assay; assay type: cell-based
Chain of Voltage-dependent T-type calcium channel subunit alpha-1H (O95180 whole entry): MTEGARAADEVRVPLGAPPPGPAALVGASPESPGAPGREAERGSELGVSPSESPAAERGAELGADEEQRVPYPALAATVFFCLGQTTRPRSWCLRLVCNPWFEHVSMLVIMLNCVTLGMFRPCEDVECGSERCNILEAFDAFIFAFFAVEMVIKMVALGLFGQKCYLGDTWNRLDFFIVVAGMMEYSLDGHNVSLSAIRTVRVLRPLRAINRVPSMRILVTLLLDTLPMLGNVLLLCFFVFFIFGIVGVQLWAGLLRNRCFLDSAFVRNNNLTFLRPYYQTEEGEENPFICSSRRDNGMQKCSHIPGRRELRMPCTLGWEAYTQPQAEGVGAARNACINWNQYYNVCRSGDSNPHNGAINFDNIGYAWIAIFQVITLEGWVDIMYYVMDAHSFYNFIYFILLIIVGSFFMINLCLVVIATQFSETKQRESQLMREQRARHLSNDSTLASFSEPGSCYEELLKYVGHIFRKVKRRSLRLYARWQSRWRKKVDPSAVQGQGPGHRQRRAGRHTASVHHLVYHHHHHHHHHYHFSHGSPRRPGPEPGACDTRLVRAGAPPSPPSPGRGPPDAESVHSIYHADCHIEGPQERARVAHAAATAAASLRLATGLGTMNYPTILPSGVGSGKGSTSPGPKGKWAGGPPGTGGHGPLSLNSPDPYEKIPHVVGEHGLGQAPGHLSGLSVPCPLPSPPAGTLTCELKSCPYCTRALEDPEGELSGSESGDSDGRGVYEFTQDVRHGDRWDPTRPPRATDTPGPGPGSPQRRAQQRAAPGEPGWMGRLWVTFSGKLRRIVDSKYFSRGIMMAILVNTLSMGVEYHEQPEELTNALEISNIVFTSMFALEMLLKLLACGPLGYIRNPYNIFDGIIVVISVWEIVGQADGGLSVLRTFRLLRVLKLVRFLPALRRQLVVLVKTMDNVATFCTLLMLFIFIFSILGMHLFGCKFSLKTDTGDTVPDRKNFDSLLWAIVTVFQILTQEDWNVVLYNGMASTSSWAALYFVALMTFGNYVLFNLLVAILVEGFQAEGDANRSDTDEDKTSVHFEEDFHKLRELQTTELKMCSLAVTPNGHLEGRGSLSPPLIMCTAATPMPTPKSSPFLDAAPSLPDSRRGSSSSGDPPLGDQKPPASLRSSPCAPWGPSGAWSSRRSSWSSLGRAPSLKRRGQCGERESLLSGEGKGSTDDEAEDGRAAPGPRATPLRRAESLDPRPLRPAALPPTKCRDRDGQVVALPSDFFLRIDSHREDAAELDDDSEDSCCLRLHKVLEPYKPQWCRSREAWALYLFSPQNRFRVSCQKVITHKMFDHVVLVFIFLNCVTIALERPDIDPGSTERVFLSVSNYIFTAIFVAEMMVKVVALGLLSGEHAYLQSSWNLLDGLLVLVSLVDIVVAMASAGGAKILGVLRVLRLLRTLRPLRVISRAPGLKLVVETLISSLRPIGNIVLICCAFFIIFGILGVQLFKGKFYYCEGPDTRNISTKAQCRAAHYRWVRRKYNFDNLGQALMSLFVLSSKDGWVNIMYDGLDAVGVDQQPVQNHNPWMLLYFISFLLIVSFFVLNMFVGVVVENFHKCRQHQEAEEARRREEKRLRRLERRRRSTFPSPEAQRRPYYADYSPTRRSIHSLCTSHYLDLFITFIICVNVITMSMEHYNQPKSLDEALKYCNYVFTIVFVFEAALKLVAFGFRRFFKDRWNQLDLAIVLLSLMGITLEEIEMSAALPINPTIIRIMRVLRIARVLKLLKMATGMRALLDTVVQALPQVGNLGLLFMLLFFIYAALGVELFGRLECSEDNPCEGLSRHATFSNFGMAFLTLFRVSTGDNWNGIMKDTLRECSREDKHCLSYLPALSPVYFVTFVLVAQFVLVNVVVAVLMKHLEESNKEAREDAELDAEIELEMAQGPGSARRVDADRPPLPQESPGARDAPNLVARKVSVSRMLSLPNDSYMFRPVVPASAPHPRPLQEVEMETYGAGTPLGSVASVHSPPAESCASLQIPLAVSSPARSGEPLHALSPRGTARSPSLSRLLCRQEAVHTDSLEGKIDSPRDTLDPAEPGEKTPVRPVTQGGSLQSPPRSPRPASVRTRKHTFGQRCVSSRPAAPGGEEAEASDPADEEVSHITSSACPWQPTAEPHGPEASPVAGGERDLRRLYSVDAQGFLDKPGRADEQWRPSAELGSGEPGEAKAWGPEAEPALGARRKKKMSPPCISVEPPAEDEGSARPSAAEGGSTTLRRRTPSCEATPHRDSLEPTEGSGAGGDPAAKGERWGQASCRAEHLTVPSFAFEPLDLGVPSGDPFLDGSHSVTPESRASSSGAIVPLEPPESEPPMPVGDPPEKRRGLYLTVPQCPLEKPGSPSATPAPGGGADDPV

[3] = molecular target: Voltage-dependent T-type calcium channel subunit alpha-1I (Homo sapiens, UniProt Q9P0X4); assay: Channel blocking activity at recombinant human CaV 3.3 channel expressed in HEK293 cells assessed as inhibition of Ca2+ flux preincubated for 3 mins followed by CaCl2 addition by fluo-4 dye-based FLIPR assay; assay type: cell-based
[4] = Intrinsic clearance in human liver microsomes at 1 uM up to 15 mins in presence of NADPH by LC-MS-MS analysis; assay type: ADME; conditions: read-out: CLH

Compound	IC50 [1]	IC50 [2]	IC50 [3]	microsomal CLint at 1 µM [4]
Cc1ccc2c(c1)N(Cc1ccccc1)C[C@@H](C)N(C(=O)Nc1cccnc1)[C@H]2C (racemic)	227 nM	231 nM	74 nM	–
COc1ccc(CNC(=O)N2[C@H](C)CN(Cc3ccccc3)c3ccccc3[C@@H]2C)cc1 (racemic)	8 nM	14 nM	6 nM	> 1250 µL/min/mg
C[C@@H]1C(=O)N(Cc2ccccc2)c2ccccc2[C@H](C)N1C(=O)NCc1ccccc1 (racemic)	304 nM	682 nM	259 nM	> 1250 µL/min/mg
C[C@@H]1CN(Cc2cnc(C(F)(F)F)s2)c2ccccc2[C@H](C)N1C(=O)Nc1cccnc1 (racemic)	33 nM	42 nM	33 nM	> 1250 µL/min/mg
C[C@@H]1CN(Cc2ccccc2)c2cc(F)cc(F)c2[C@H](C)N1C(=O)Nc1cccnc1 (racemic)	12 nM	22 nM	8 nM	873 µL/min/mg
C[C@@H]1CN(Cc2ccc(F)c(F)c2)c2ccccc2[C@H](C)N1C(=O)Nc1cccnc1 (racemic)	13 nM	18 nM	6 nM	> 1250 µL/min/mg
C[C@@H]1CN(Cc2ccccc2)c2nc(F)ccc2[C@H](C)N1C(=O)NCc1ccccc1 (racemic)	7 nM	6 nM	4 nM	> 1250 µL/min/mg
C[C@@H]1CN(c2ccccc2)c2ccccc2[C@H](C)N1C(=O)NCc1ccccc1 (racemic)	256 nM	209 nM	225 nM	> 1250 µL/min/mg
C[C@@H]1CN(Cc2cccc(F)c2)c2ccccc2[C@H](C)N1C(=O)Nc1cccnc1 (racemic)	8 nM	14 nM	5 nM	> 1250 µL/min/mg
C[C@H]1c2ccccc2N(Cc2ccccc2)CCN1C(=O)NCc1ccccc1 (racemic)	193 nM	241 nM	164 nM	> 1250 µL/min/mg
C[C@@H]1CN(Cc2cccc(F)c2F)c2ccccc2[C@H](C)N1C(=O)NCc1ccccc1 (racemic)	5 nM	9 nM	4 nM	–
C[C@@H]1CN(Cc2ccccc2)c2ccccc2C(=O)N1CCc1ccccc1 (racemic)	676 nM	618 nM	1590 nM	> 1250 µL/min/mg
C[C@@H]1CN(Cc2ccccc2)c2ccccc2[C@H](C)N1S(=O)(=O)c1cn(C)cn1 (racemic)	576 nM	1490 nM	210 nM	–
C[C@@H]1CN(C(=O)NCc2ccccc2)[C@@H](C)c2ccccc2N1Cc1ccccc1 (racemic)	211 nM	198 nM	326 nM	–
C[C@@H]1CN(Cc2ccccc2)c2cnc(Cl)cc2[C@H](C)N1C(=O)NCc1ccccc1 (racemic)	220 nM	224 nM	55 nM	> 1250 µL/min/mg
C[C@@H]1CN(Cc2ccccc2)c2c(cnn2C)[C@H](C)N1C(=O)NCc1ccccc1 (racemic)	> 9400 nM	> 7300 nM	> 10000 nM	–
C[C@@H]1CN(Cc2ccccc2)c2cccnc2[C@H](C)N1C(=O)NCc1ccccc1 (racemic)	597 nM	212 nM	91 nM	–
CC(C)CCN1C[C@@H](C)N(C(=O)Nc2cccnc2)[C@@H](C)c2ccccc21 (racemic)	23 nM	91 nM	12 nM	> 1250 µL/min/mg
C[C@@H]1CN(Cc2ccccc2)c2ncc(F)cc2[C@H](C)N1C(=O)NCc1ccccc1 (racemic)	65 nM	95 nM	15 nM	837 µL/min/mg
C[C@H]1CN(Cc2ccccc2)c2ccccc2[C@H](C)N1C(=O)NCc1ccccc1 (racemic)	279 nM	340 nM	95 nM	> 1250 µL/min/mg
C[C@@H]1CN(Cc2ccncc2)c2ccccc2[C@H](C)N1C(=O)NCc1ccccc1 (racemic)	> 7260 nM	> 8580 nM	1710 nM	–
C[C@@H]1CNc2ccccc2[C@H](C)N1C(=O)NCc1ccccc1 (racemic)	> 10000 nM	> 10700 nM	> 8600 nM	59 µL/min/mg
C[C@@H]1c2ccncc2N(Cc2ccccc2)C[C@H](C)N1C(=O)NCc1ccccc1	> 10000 nM	> 11000 nM	> 10000 nM	–
C[C@@H]1CN(Cc2ccccc2)c2ccccc2[C@H](C)N1C(=O)NCc1ccccc1	5 nM	17 nM	2 nM	–
C[C@@H]1CN(Cc2ccccc2)c2ccccc2CN1C(=O)NCc1ccccc1 (racemic)	102 nM	141 nM	26 nM	> 1250 µL/min/mg
C[C@@H]1CN(Cc2ccccc2)c2cc(S(C)(=O)=O)ccc2[C@H](C)N1C(=O)Nc1cccnc1 (racemic)	> 10000 nM	> 8000 nM	> 10000 nM	–

Compound	IC50 [1]	IC50 [2]	IC50 [3]	microsomal CLint at 1 µM [4]
C[C@@H]1CN(Cc2ccccc2)c2ncc(Cl)cc2[C@H](C)N1C(=O)NCc1ccccc1 (racemic)	78 nM	68 nM	46 nM	409 µL/min/mg
C[C@@H]1CN(Cc2ccccc2)c2ccccc2[C@H](C)N1C(=O)C1CCOCC1 (racemic)	24 nM	47 nM	8 nM	1160 µL/min/mg
C[C@@H]1CN(Cc2ccccc2)c2cncnc2[C@H](C)N1C(=O)NCc1ccccc1 (racemic)	> 8500 nM	> 6400 nM	1000 nM	–
C[C@@H]1CN(Cc2cccc(C(F)(F)F)n2)c2ccccc2[C@H](C)N1C(=O)NCc1ccccc1 (racemic)	25 nM	42 nM	14 nM	> 1250 µL/min/mg
C[C@@H]1CN(Cc2ccccc2)c2nc(Cl)ccc2[C@H](C)N1C(=O)NCc1ccccc1 (racemic)	16 nM	36 nM	22 nM	1000 µL/min/mg
C[C@@H]1CN(CC2CCCC2)c2ccccc2[C@H](C)N1C(=O)Nc1cccnc1 (racemic)	23 nM	62 nM	14 nM	1150 µL/min/mg
CC(C)CCN1C[C@@H](C)N(C(=O)CCc2cccnc2)[C@@H](C)c2ccccc21 (racemic)	29 nM	62 nM	13 nM	412 µL/min/mg
C[C@@H]1CN(Cc2ccccc2)c2cc(Br)ccc2[C@H](C)N1C(=O)Nc1cccnc1 (racemic)	286 nM	428 nM	137 nM	–
COc1ccc(CN2C[C@@H](C)N(C(=O)NCc3ccccc3)[C@@H](C)c3ccccc32)cn1 (racemic)	45 nM	33 nM	10 nM	> 1250 µL/min/mg
C[C@@H]1CN(Cc2ccccc2)c2ccccc2[C@H](C)N1C(=O)CN1CCOCC1 (racemic)	36 nM	51 nM	7 nM	> 1250 µL/min/mg
COc1cccc2c1[C@H](C)N(C(=O)Nc1cccnc1)[C@H](C)CN2Cc1ccccc1 (racemic)	188 nM	305 nM	130 nM	–
C[C@@H]1CN(CCOC(C)(C)C)c2ccccc2[C@H](C)N1C(=O)NCc1ccccc1 (racemic)	35 nM	44 nM	12 nM	–
C[C@@H]1CN(Cc2ccccc2)c2nnccc2[C@H](C)N1C(=O)NCc1ccccc1 (racemic)	1140 nM	695 nM	206 nM	–
C[C@@H]1CN(Cc2ccccc2)c2ccncc2[C@H](C)N1C(=O)NCc1ccccc1 (racemic)	6280 nM	> 11000 nM	> 8740 nM	–
C[C@@H]1CN(Cc2ccccc2)c2ccccc2[C@H](C)N1C(=O)N(C)Cc1ccccc1 (racemic)	457 nM	835 nM	892 nM	–
C[C@@H]1CN(Cc2ccccn2)c2ccccc2[C@H](C)N1C(=O)NCc1ccccc1 (racemic)	605 nM	479 nM	97 nM	–
C[C@@H]1CN(Cc2ccccc2)c2ccccc2[C@H](C)N1CC1CCOCC1 (racemic)	6110 nM	7410 nM	> 10000 nM	–
C[C@@H]1c2ccccc2N(Cc2ccccc2)C[C@H](C)N1C(=O)NCc1ccccc1	262 nM	358 nM	641 nM	–
C[C@@H]1CN(C(=O)c2ccccc2)c2ccccc2[C@H](C)N1C(=O)NCc1ccccc1 (racemic)	6070 nM	> 11500 nM	> 10000 nM	–
C[C@@H]1CN(Cc2cccnc2)c2ccccc2[C@H](C)N1C(=O)NCc1ccccc1 (racemic)	476 nM	500 nM	95 nM	–
C[C@H]1c2ccccc2N(Cc2ccccc2)[C@@H](C)CN1C(=O)NCc1ccccc1 (racemic)	293 nM	464 nM	1000 nM	–
COc1cc2c(cc1F)N(Cc1ccccc1)C[C@@H](C)N(C(=O)Nc1cccnc1)[C@H]2C (racemic)	370 nM	414 nM	73 nM	–
C[C@@H]1CN(S(=O)(=O)c2ccccc2)c2ccccc2[C@H](C)N1C(=O)Nc1cccnc1 (racemic)	> 10000 nM	4690 nM	1810 nM	–
C[C@@H]1CN(Cc2ccccc2)c2ccccc2[C@H](C)N1C(=O)OCc1ccccc1 (racemic)	420 nM	841 nM	473 nM	–
COc1cccc2c1N(Cc1ccccc1)C[C@@H](C)N(C(=O)Nc1cccnc1)[C@H]2C (racemic)	> 5300 nM	> 6500 nM	> 9000 nM	–
